{"source": "patent US20260007673A1", "about": "“ROCK2 INHIBITORS FOR THE TREATMENT OF VIRAL INFECTIONS” (GRAVITON BIOSCIENCE BV, priority 2022, published 2026)", "key": {"[1]": {"tested_on": "SARS-CoV-2 2019-nCoV/USA-WA1/2020 strain", "assay": "Lung viral load by qPCR in infected human ACE2 transgenic mice", "format": "in vivo", "conditions": "mice infected with 100 or 1000 pfu; 300 mg/kg daily oral gavage; 7, 14, 21 days; vs vehicle and remdesivir (FIGS. 13-14)"}, "SARS-CoV-2 [2]": {"tested_on": "SARS-CoV-2", "assay": "7-day clinical trial in patients with mild to moderate COVID-19", "format": "in vivo"}, "Calu-3 cells": {"tested_on": "Calu-3 cells", "assay": "Cellular toxicity: LDH assay", "format": "cell-based, human", "conditions": "0.03-100 μM, LDH assay at 48 h (FIGS. 4-5)", "protocol": "The toxicity of Compound 2 was measured at concentrations of 0.1, 0.3, 1, 10, 25, 50, 75, and 100 μM in Calu-3 cells by LDH ([…] dehydrogenase) assay (Clontech) according to the manufacturer's instructions. A positive control consisted of saponin (0.5%). A negative control consisted of DMSO (0.2%)."}, "[3]": {"tested_on": "SARS-CoV-2 infected lung tissue", "assay": "Lung fibrosis by H&E staining in infected human ACE2 transgenic mice", "format": "in vivo", "conditions": "infected mouse lung tissue 7, 14, 21 days after infection; vs vehicle (FIG. 16)"}, "SARS-CoV-2 [4]": {"tested_on": "SARS-CoV-2", "assay": "In vitro SARS-CoV-2 model in primary human airway epithelial cells, viral load by qRT-PCR", "format": "cell-based", "conditions": "5 μM and 25 μM, read at 24 and 48 hours (FIGS. 11-12)", "protocol": "A 50 mM stock solution of Compound 2 (in DMSO) was diluted using PBS to concentrations of 100, 75, 50, 25, 10, 5, 1, 0.3, 0.1, and 0.03 μM. About 30,000 immortalized human airway epithelial cells (Calu-3) (see, FIG. 1-10) or primary human airway epithelial cells (Normal Human Small Airway Epithelial Cells; Sigma) (see, FIGS. 11-12) were grown to about 100,000 cells per well in a 96-well format. The cells were challenged with 10^2 or 10^3 PFU SARS-CoV-2 (standard CDC SARS-CoV-2 strain) in triplicate and incubated for 6 h at 37° C., followed by washing. The cells were then treated with Compound 2 or negative control by adding 10 μL of a solution of Compound 2 (0.03-100 μM) or negative control solution (DMSO in PBS) in triplicate and incubating for 2 h at 37° C. A positive control consisted of remdesivir (RDV; 10 μM). […] The cells were maintained until the second endpoint readout at 48 h (the first occurring at 24 h post-infection). […]\nViral infection/load was analyzed by qPCR (qRT-PCR). […] Viral or host RNA levels in the supernatant were determined using the TaqPath™ 1-Step RT-qPCR Master Mix (Thermo Fisher) on a CFX Connect Real-Time System (Bio-Rad) instrument using the following primers: Fwd: 5′-[…]-3′; Rev. […]\nDatasets were analyzed and plotted in GraphPad Prism (version 9.0.2). […]"}, "SARS-CoV-2 [5]": {"tested_on": "SARS-CoV-2", "assay": "In vitro SARS-CoV-2 model in immortalized human airway epithelial cells (Calu-3), viral load by qRT-PCR", "format": "cell-based", "conditions": "for inhibition of viral replication (viral titers): 10 μM", "protocol": "A 50 mM stock solution of Compound 2 (in DMSO) was diluted using PBS to concentrations of 100, 75, 50, 25, 10, 5, 1, 0.3, 0.1, and 0.03 μM. About 30,000 immortalized human airway epithelial cells (Calu-3) (see, FIG. 1-10) or primary human airway epithelial cells (Normal Human Small Airway Epithelial Cells; Sigma) (see, FIGS. 11-12) were grown to about 100,000 cells per well in a 96-well format. The cells were challenged with 10^2 or 10^3 PFU SARS-CoV-2 (standard CDC SARS-CoV-2 strain) in triplicate and incubated for 6 h at 37° C., followed by washing. The cells were then treated with Compound 2 or negative control by adding 10 μL of a solution of Compound 2 (0.03-100 μM) or negative control solution (DMSO in PBS) in triplicate and incubating for 2 h at 37° C. A positive control consisted of remdesivir (RDV; 10 μM). An additional control (3 wells) was treated with Compound 2 at the highest concentration, but not challenged with virus. The cells were maintained until the second endpoint readout at 48 h (the first occurring at 24 h post-infection). In some instances, the cellular media was replaced 24 h after infection with untreated culture medium (“unmediated medium”) or culture medium containing the positive control (RDV) or Compound 2 (“mediated medium”), see, FIG. 10.\nViral infection/load was analyzed by qPCR (qRT-PCR). RNA from cells was extracted with TRIzol reagent (Thermo Fisher) according to manufacturer's instructions. Viral or host RNA levels in the supernatant were determined using the TaqPath™ 1-Step RT-qPCR Master Mix (Thermo Fisher) on a CFX Connect Real-Time System (Bio-Rad) instrument using the following primers: Fwd: 5′-[…]-3′; Rev. 5′-[…]-3′.\nDatasets were analyzed and plotted in GraphPad Prism (version 9.0.2). Analytic simulations of dose-response curves using the median-effect principle and mass-action Law were carried out using CompuSyn (https://www.combosyn.com/)."}}, "note": "“Also recorded” adds a separate entry of the source.", "data": [{"compound": "Cn1c(C(=O)N2CC(F)(F)C2)cc2ccc(-c3nccc(Nc4ccc(-c5cn[nH]c5)cc4)n3)cc21", "note": "[Compound 2, (6-(4-((4-(1H-pyrazol-4-yl)phenyl)amino)pyrimidin-2-yl)-1-methyl-1H-indol-2-yl)(3,3-difluoroazetidin-1-yl)methanone]", "values": [{"measurement": "viral load in the lung", "setting": "[1]", "result": "significantly reduced viral load"}, {"measurement": "clinical efficacy in treating mild to moderate COVID-19", "setting": "SARS-CoV-2 [2]; 200 mg or 400 mg once daily for 7 days plus standard of care (FIGS. 17-20)", "result": "clinical efficacy"}, {"measurement": "viral titers, as negative conversion rates of SARS-CoV-2 nucleic acid detection", "setting": "SARS-CoV-2 [2]; 200 mg or 400 mg once daily for 7 days, relative to Control (FIG. 18)", "result": "lower viral titers"}, {"measurement": "inflammation, as levels of interleukin 6", "setting": "SARS-CoV-2 [2]; 200 mg/day and 400 mg/day (FIG. 19)", "result": "reduced levels of inflammation"}, {"measurement": "inflammation, as levels of C-reactive protein (CRP)", "setting": "SARS-CoV-2 [2]; 200 mg/day and 400 mg/day (FIG. 20)", "result": "reduced levels of inflammation"}, {"measurement": "relief rate of sustained clinical symptoms", "setting": "SARS-CoV-2 [2]; 400 mg once daily for 7 days, relative to Control and to 200 mg (FIG. 17)", "result": "substantial improvement"}, {"measurement": "cellular toxicity by LDH", "setting": "Calu-3 cells", "result": "low cellular toxicity"}, {"measurement": "pulmonary fibrosis (histology)", "setting": "[3]", "result": "reducing pulmonary fibrosis; also recorded: reduces lung fibrosis"}, {"measurement": "efficacy against SARS-CoV-2 infection (viral concentration)", "setting": "SARS-CoV-2 [4]", "result": "efficacy at 5 μM and 25 μM concentrations"}, {"measurement": "inhibition of viral replication (viral titers)", "setting": "SARS-CoV-2 [5]; Calu-3, read at 24 and 48 hours, compared to negative control (0.1% DMSO) and positive control (RDV) (FIGS. 6-7)", "result": "inhibiting viral replication"}, {"measurement": "inhibition of viral replication (viral titers)", "setting": "SARS-CoV-2 [5]; Calu-3, read at 24 and 48 hours, treated 0, 2, 4, 8 h post-infection, compared to control (FIGS. 1-3)", "result": "inhibiting viral replication"}, {"measurement": "dose response of inhibition of viral replication", "setting": "SARS-CoV-2 [5]; Calu-3, 1, 5, 10 and 25 μM, read at 24 and 48 hours, given 0-10 h after infection (FIGS. 8A-9F)", "result": "Dose responses were observed at all time points"}, {"measurement": "viral concentration after repeat dosing", "setting": "SARS-CoV-2 [5]; Calu-3, 48 h after infection, medium containing compound replenished at 24 h (FIG. 10)", "result": "further decreased viral concentration"}, {"measurement": "viral titers of SARS-CoV-2", "setting": "SARS-CoV-2 [5]; immortalized human airway epithelial cells infected with SARS-CoV-2, FIGS. 1-12", "result": "substantially reduce viral titers"}]}]}
